Data on 25 compounds can be found in patent US20210238173A1, “MITOGEN-ACTIVATED PROTEIN KINASE KINASE 7 INHIBITORS” (Yeda Research and Development Co. Ltd., priority 2018, published 2021).

Data set [1] concerns the target T1, MKK7 (Homo sapiens, UniProt O14733).
T1 construct: purchased Nanosyn (contract assay)
T1 sequence (O14733 1-419): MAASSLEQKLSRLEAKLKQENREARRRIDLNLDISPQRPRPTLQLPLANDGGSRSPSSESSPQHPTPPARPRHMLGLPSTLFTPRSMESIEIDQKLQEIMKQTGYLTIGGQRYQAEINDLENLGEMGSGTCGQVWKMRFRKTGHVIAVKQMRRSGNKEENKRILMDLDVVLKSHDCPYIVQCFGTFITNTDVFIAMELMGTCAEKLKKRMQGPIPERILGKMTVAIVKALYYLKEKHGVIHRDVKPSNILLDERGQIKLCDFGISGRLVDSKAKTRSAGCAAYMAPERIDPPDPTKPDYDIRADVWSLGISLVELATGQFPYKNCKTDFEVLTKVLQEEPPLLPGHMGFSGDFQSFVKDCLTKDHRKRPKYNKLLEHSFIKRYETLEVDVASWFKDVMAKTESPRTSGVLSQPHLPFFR
Kind of data set: In vitro kinase activity assay for MKK7 (Nanosyn). Format: biochemical. The settings on record: read-out: MKK7 IC50 in vitro. The method, then:
Based on visual inspection of the top 500 predictions, 10 compounds were selected for synthesis and testing (see, Table 1). The “Docking rank” is given in its respective run, whereas four virtual libraries of acrylamides were docked separately, based on the amine precursor for the acrylamide (primary or secondary aliphatic amines, primary or secondary aromatic amines). In vitro kinase activity assay was carried out by Nanosyn, as described below.
In Vitro Activity Assays for MKK7 or MKK4 (Carried by Nanosyn):
Exemplary test compounds, according to some embodiments of the present invention, were diluted in DMSO to a final concentration that ranged from 10 μM to 0.0565 nM, while final concentration of DMSO in all assays was kept at 1%. Reference compound, Staurosporine, was tested in a similar manner. […] After incubation, activity of now activated JNK1 was tested in the presence of 30 μM ATP ATP for 17 h (MKK7) or 4 h (MKK4).

For data set [2], the system named is pJNK in HEK293 cells. Kind of data set: In-cell western (ICW) pJNK inhibition in HEK293. Format: cell-based. The settings on record: Homo sapiens, HEK293, HEK293, ICW, 2 h pre-incubation, sorbitol stimulation. The protocol: HEK293, Beas2B and 3T3 cells were plated 24 hours before procedure on 384 well clear bottom black flat plates (Corning) pre-coated with Fibronectin (Sigma) diluted in PBS to a concentration of 5 μg/ml 45 minutes prior to cells introduction. Cells were plated using Multidrop™ Combi reagent dispenser (Thermo Fisher Scientific). Compound, reagents and antibody dispensing as well as washes were performed with a CyBio liquid handler (Analytik). Cells were pre-incubated with a small molecule or up to 1% DMSO for 2 h before fixation. HEK293, 3T3 or Beas2B cells were treated with 0.6M/0.2M/0.2M D-Sorbitol/PBS (Sigma) for 20/40/40 min. respectively, before fixation. Media was removed and wells were immediately fixed with 150 μl per well of 3.7% formaldehyde/PBS fixing solution for 20 min. Formaldehyde was then aspired and cells were permeabilized with 150 μl of 0.5% Triton x-100/PBS solution for 10 min. After aspiration cells were washed with ice-cold methanol and stored at −20° C., for 10 min. Methanol was aspired and cells were blocked with 150 μl blocking buffer (LICOR) for 90 min. Primary antibody Phospho-SAPK/JNK T183/Y185 (CST; 9251S) was diluted 1:1000 in blocking buffer and was applied 50 μl per well, except control wells to which only blocking buffer was applied, O.N. (16 h) at 4° C. with mild shaking. Primary antibody was aspired, wells were washed with 150 μl 0.1% Tween20/PBS (Sigma) washing solution three times for 7 min. IRDye® 800CW Goat anti-Rabbit IgG Secondary antibody (LICOR) was then diluted 1:1200 in blocking buffer with 50 μl applied per well on control wells only (no CellTag control), then CellTag700 (1:2000) was added to the solution and 50 μl were added to all experiment wells, for 1 h at room temperature. Wells were aspired and washed again with 150 μl 0.1% Tween20/PBS (Sigma) washing solution three times for 7 min. plate was dried and scanned with Odyssey CLx imaging system at 700 nm and 800 nm (Licor). Wells signals were analyzed with Odyssey software. The signal was normalized by the CellTag700 signal.
To rapidly assess the cellular activity (EC50) with full dose response curves of the MKK7 covalent inhibitors, according to some embodiments of the present invention, an in-cell western assay was adapted to a 384 well plate format over traditional western blot, and monitored phospho-JNK (pJNK) levels in response to osmotic shock. We first characterized the dynamics of pJNK in response to sorbitol. Sufficient dynamic range for pJNK is achieved at 20 minutes in HEK293 cells and at 40 minutes in 3T3 and Beas2B cells. The compound's activity was assessed by pre-treating cells with either compound or DMSO for 2 hours, followed by Sorbitol stimulation. The response of pJNK, and its substrates, pc-Jun and pATF2, was measured, as well as pP38, which is a substrate of MKK4 but not MKK7, and pERK in HEK293 cells, and the results are presented in Table 5 below.

Data set [3] in a line: Metabolic stability in mouse liver microsomes. It counts as in vitro ADME. The settings on record: for half-life: mouse, liver microsomes. An excerpt:
(§1) A reference compound, REF1250, was used in this study: […]
Background: Microsomes from liver hold many membrane-bound enzymes, among them those of drug oxidation.

Data set [4] can be described thus: Metabolic stability in rat liver microsomes. It counts as in vitro ADME. The settings on record: for half-life: rat, liver microsomes.
From the text: as §1

The nature of data set [5]: Metabolic stability in dog liver microsomes. Format: in vitro ADME. Conditions: for half-life: dog, liver microsomes.
From the text: as §1

Data set [6] is described as follows: Metabolic stability in monkey liver microsomes. It counts as in vitro ADME.
From the text: as §1

Data set [7] is described as follows: Metabolic stability in human liver microsomes. Format: in vitro ADME. Conditions: for half-life: human, liver microsomes.
From the text: as §1

The structures appear in SMILES notation. “And” between values parts separate entries of the source, which are not always exact repeats. Identical values can stand only once.

As a reminder, the IC50 is the concentration that inhibits the measured activity by half. In the case of `C=CC(=O)Nc1cccc2[nH]ncc12` [GO1], in data set [1], the IC50 was over 10000 nM.

Regarding `C=CC(=O)NC1CCC(c2nc(-c3ccccc3)n[nH]2)CC1` (stereo not shown) [GO2], the IC50 in data set [1] was over 10000 nM.

In the case of `C=CC(=O)Nc1ccc(N2CCNC2=O)cc1` [GO5], the IC50 in data set [1] came out at 502 nM.

For the compound `C=CC(=O)N1CCC(c2c[nH]c3ncccc23)CC1` [GO6], the IC50 in data set [1] was over 10000 nM.

Consider `C=CC(=O)Nc1ccc2c(c1)C(=O)NC2` [GO7], for which, in data set [1], the IC50 turned out to be 873 nM.

As to `C=CC(=O)NCC1CCCN(c2cc(NC)ncn2)C1` (stereo not shown) [GO8], in data set [1], the IC50 was over 10000 nM.

Take `C=CC(=O)NCC1CCCN1c1cc(NC)ncn1` (stereo not shown) [GO9]: the IC50 in data set [1] was over 10000 nM.

As to `C=CC(=O)N1CCN(CC2=NC(C)N=N2)CC1` (stereo not shown) [GO10], the IC50 in data set [1] is over 10000 nM.

`C=CC(=O)N1CCOC(c2nc(CCC)n[nH]2)C1` (stereo not shown) [GO14]: the half-maximal inhibitory concentration (IC50) in data set [1] was over 10000 nM.

One may read the EC50 as the concentration at which the effect is half-maximal. Regarding `C=CC(=O)Nc1cccc(-c2n[nH]c3c([N+](=O)[O-])cccc23)c1` [GO29], the IC50 in data set [1] came out at 27 nM. The compound further gave an EC50 in data set [2] of over 10000 nM.

Consider `C=CC(=O)Nc1cccc(-c2n[nH]c3c2CCC3)c1` [GO49], for which the IC50 in data set [1] is 73 nM.

Usually half-life stands for the time needed for the level to fall by half in the phase considered. Take `C=CC(=O)Nc1cccc(-c2n[nH]c3c2CC(C)(C)CC3)c1` [GO54]: the IC50 in data set [1] was found to be 10 nM. In data set [2], this compound yielded an EC50 of 3300 nM. Besides, the “% remaining @ 40 min” value in data set [3] turned out to be 18%; in data set [4], 4%; in data set [5], 1%; in data set [6], 1%; in data set [7] it was 20%. The half-life in data set [3] came out at 11 min; in data set [4], 8 min; in data set [5], 6 min; in data set [6], 5 min; in data set [7], 16 min.

On to `C=CC(=O)Nc1cccc(-c2n[nH]c3c2COCC3)c1` [GO55], for which the IC50 in data set [1] turned out to be 64 nM. In data set [2], this compound yielded an EC50 of over 10000 nM. Moreover, the “% remaining @ 40 min” value in data set [3] is listed as 4%; in data set [4], 40%; in data set [5], 6%; in data set [6], 0%; in data set [7], 13%. Moreover, the half-life in data set [3] is 8 min; in data set [4] it was 29 min; in data set [5] it was 9 min; in data set [6] it was under 5 min; in data set [7], 13 min.

With `C=CC(=O)Nc1cccc(-c2n[nH]c3c2CN(C(=O)OC(C)(C)C)CC3)c1` [GO61], in data set [1], the half-maximal inhibitory concentration (IC50) came out at 193 nM. In addition, in data set [2], the EC50 is over 10000 nM.

As for `C=CC(=O)Nc1cccc(-c2n[nH]c3c2CNCC3)c1` [GO64], the IC50 in data set [1] amounted to 2460 nM. The compound also had an EC50 in data set [2] of over 10000 nM.

Regarding `C#CCCCC(=O)N1CCc2[nH]nc(-c3cccc(NC(=O)C=C)c3)c2C1` [GO65], the IC50 in data set [1] amounted to 30 nM.

Regarding `C=CC(=O)Nc1cc(-c2n[nH]c3ccccc23)ccc1C` [GO72], the IC50 in data set [1] is 26 nM. Further, the concentration giving a half-maximal response (EC50) in data set [2] amounted to 4200 nM. Further, the “% remaining @ 40 min” value in data set [3] was 0%; in data set [4], 0%; in data set [5], 0%; in data set [6], 0%; in data set [7], 11%. For the same compound, the half-life in data set [3] is under 5 min; in data set [4] it was under 5 min; in data set [5], under 5 min; in data set [6] it was under 5 min; in data set [7] it was 12 min.

Consider `C=CC(=O)Nc1cc(C#N)cc(-c2n[nH]c3ccccc23)c1` [GO73], for which the IC50 in data set [1] came to 4 nM. The “% remaining @ 40 min” value in data set [3], in data set [4], in data set [5], in data set [6] and in data set [7] was 0% each time. Moreover, the half-life in data set [3], in data set [4], in data set [5], in data set [6] and in data set [7] was under 5 min each time.

`CN(C)C/C=C/C(=O)Nc1cccc(-c2n[nH]c3ccccc23)c1` [GO74]: the IC50 in data set [1] came out at 267 nM.

Consider `C=CC(=O)Nc1cccc(-c2n[nH]c3c(C)cccc23)c1` [GO81], for which the IC50 in data set [1] came to 812 nM.

For `C=CC(=O)Nc1cccc(-c2n[nH]c3cc(OC)ccc23)c1` [GO83], in data set [1], the IC50 stood at 11 nM. In addition, the “% remaining @ 40 min” value in data set [3] was determined as 0%; in data set [4] it was 48%; in data set [5], 0%; in data set [6] it was 0%; in data set [7] it was 1%. For the same compound, the half-life in data set [3] was 5 min; in data set [4], 35 min; in data set [5], under 5 min; in data set [7], under 5 min.

For `C=CC(=O)Nc1cccc(-c2n[nH]c3c(F)cccc23)c1` [GO88], the IC50 in data set [1] amounted to 4 nM. A half-maximal effect in data set [2] (EC50) was put at 1800 nM. The “% remaining @ 40 min” value in data set [3] amounted to 0%; in data set [4] it was 2%; in data set [5] it was 0%; in data set [6] it was 0%; in data set [7] it was 0%. The half-life is under 5 min in data set [3]; 7 min in data set [4]; under 5 min in data set [5]; under 5 min in data set [6]; under 5 min in data set [7].

In the case of `C=CC(=O)Nc1cccc(-c2n[nH]c3c(Cl)cccc23)c1` [GO89], the concentration for half-maximal inhibition (IC50) in data set [1] came to 47 nM. The “% remaining @ 40 min” value was found to be 0% in data set [3]; 1% in data set [4]; 0% in data set [5]; 0% in data set [6]; 3% in data set [7]. The half-life is under 5 min in data set [3], 6 min in data set [4], under 5 min in data set [6] and 8 min in data set [7].

In the case of `C=CC(=O)Nc1cccc(-c2n[nH]c3cc(-c4ccccc4)ccc23)c1` [GO101], the IC50 in data set [1] was 11 nM. The compound further came in with an EC50 in data set [2] of 1000 nM.

As for `COc1cc(OC)cc(C(C#N)(CCCN(C)CCc2ccc(OC)c(OC)c2)C(C)C)c1` (stereo not shown) [REF1250, reference compound], the “% remaining @ 40 min” value in data set [3] was 2% and 1%; in data set [4], 3% and 1%; in data set [5], 12% and 5%; in data set [6] it was 0%; in data set [7], 5% and 3%. The Halflife in data set [3] and in data set [4] was 6 min each time. Also, the half-life is 7 min in data set [3]; 8 min in data set [4]; 12 min in data set [5]; under 5 min in data set [6]; 9 min in data set [7].
